# Measurements reported in article PMC8319832, “Fine-Tuning of Alkaline Residues on the Hydrophilic Face Provides a Non-toxic Cationic α-Helical Antimicrobial Peptide Against Antibiotic-Resistant ESKAPE Pathogens” (Frontiers in Microbiology, 2021).
# Where a SMILES comes first, the peptide text is derived from it.
# How the values were obtained:
# [1] = tested on: E. coli ATCC25922; test: MIC, broth dilution; type: cell-based, Escherichia coli; settings: CLSI broth dilution, MHB, 6.25 × 10^5 cfu per ml, 37°C, 20 h, OD630, at least three repeats
# [2] = tested on: human red blood cells (hRBCs); test: Hemolytic activity determination; type: cell-based; settings: hRBCs in 0.9% sodium chloride, 37°C, 1 h, OD540, 1% Triton X-100 = 100%, three independent experiments
# Protocol: Fresh human red blood cells (hRBCs) were collected in a sterile borosilicate glass tube covered with sodium citrate as the anticoagulating agent. […] Two-fold dilutions of the peptides were prepared in 0.9% sodium chloride to 100 μl and mixed with equal volumn of hRBC suspension to final peptide concentrations ranging from 12.5 to 200 μg ml^–1. After co-incubation at 37°C for 1 h, the samples were centrifuged (2,000 × g, 4°C, 20 min), and the supernatant (100 μl) was taken for optical density (OD540) measurements (Asample). The hRBCs assayed with 0.9% sodium chloride (Ablank) or 1% Triton X-100 (Apositive) were applied as 0% and 100% hemolysis, respectively. Three independent experiments were performed and the percent hemolysis was calculated according to the following equation ([Yin et al., 2012]; [Li et al., 2016]):
# Hemolysis(%)=100*(Asample-Ablank)/(Apositive-Ablank)
# [3] = tested on: K. pneumoniae 9126; test: MIC, broth dilution; type: cell-based, Klebsiella pneumoniae; settings: CLSI broth dilution, MHB, 37°C, 20 h, OD630, at least three repeats; clinical isolate, CRE
# Excerpt: (§1) All experiments were repeated at least three times.
# [4] = tested on: ESBL-producing E. coli, CRE- and MDR P. aeruginosa, CRE- and MDR A. baumannii; test: MIC, summary over resistant gram-negative strains; type: cell-based; settings: summary of Table 4
# Excerpt: as §1
# [5] = tested on: K. pneumoniae ATCC 700603; test: MIC, broth dilution; type: cell-based, Klebsiella pneumoniae; settings: CLSI broth dilution, MHB, 37°C, 20 h, OD630, at least three repeats; standard strain
# Protocol: as §1
# (§2) To study the influence of physiological ions on the antimicrobial activities of the peptides, The MICs of the peptides were also determined against the standard bacterial strains cultured in MHB containing various salts at their physiological concentrations (150 mM NaCl, 4.5 mM KCl, 1 mM MgCl2, 2 mM CaCl2, 6 μM NH4HCO3, and 4 μM FeCl3) ([Ma et al., 2016]).
# [6] = tested on: P. aeruginosa ATCC 27853; test: MIC, broth dilution; type: cell-based, Pseudomonas aeruginosa; settings: CLSI broth dilution, MHB, 37°C, 20 h, OD630, at least three repeats; standard strain
# Protocol: as §1, §2
# [7] = tested on: A. baumannii 13079; test: MIC, broth dilution; type: cell-based, Acinetobacter baumannii; settings: CLSI broth dilution, MHB, 37°C, 20 h, OD630, at least three repeats; clinical isolate, CRE, MDR
# Excerpt: as §1
# [8] = tested on: A. baumannii 13012; test: MIC, broth dilution; type: cell-based, Acinetobacter baumannii; settings: CLSI broth dilution, MHB, 37°C, 20 h, OD630, at least three repeats; clinical isolate, CRE, MDR
# Excerpt: as §1
# [9] = tested on: A. baumannii 906; test: MIC, broth dilution; type: cell-based, Acinetobacter baumannii; settings: CLSI broth dilution, MHB, 37°C, 20 h, OD630, at least three repeats; clinical isolate, CRE, MDR
# Excerpt: as §1
# [10] = tested on: A. baumannii 9068; test: MIC, broth dilution; type: cell-based, Acinetobacter baumannii; settings: CLSI broth dilution, MHB, 37°C, 20 h, OD630, at least three repeats; clinical isolate, CRE, MDR
# Excerpt: as §1
# [11] = tested on: E. coli ATCC35218; test: MIC, broth dilution; type: cell-based, Escherichia coli; settings: CLSI broth dilution, MHB, 37°C, 20 h, OD630, at least three repeats; standard strain
# Excerpt: as §1
# [12] = tested on: E. coli 2678; test: MIC, broth dilution; type: cell-based, Escherichia coli; settings: CLSI broth dilution, MHB, 37°C, 20 h, OD630, at least three repeats; clinical isolate, ESBL
# Excerpt: as §1
# [13] = tested on: E. coli 2687; test: MIC, broth dilution; type: cell-based, Escherichia coli; settings: CLSI broth dilution, MHB, 37°C, 20 h, OD630, at least three repeats; clinical isolate, ESBL
# Excerpt: as §1
# [14] = tested on: E. faecalis ATCC 29212; test: MIC, broth dilution; type: cell-based; settings: CLSI broth dilution, MHB, 37°C, 20 h, OD630, at least three repeats; standard strain
# Protocol: as §1, §2
# [15] = tested on: S. aureus 4188; test: MIC, broth dilution; type: cell-based, Staphylococcus aureus; settings: CLSI broth dilution, MHB, 37°C, 20 h, OD630, at least three repeats; clinical isolate, penicillin-resistant
# Excerpt: as §1
# [16] = tested on: S. aureus 1176; test: MIC, broth dilution; type: cell-based, Staphylococcus aureus; settings: CLSI broth dilution, MHB, 37°C, 20 h, OD630, at least three repeats; clinical isolate
# Excerpt: as §1
# [17] = tested on: S. aureus 9124; test: MIC, broth dilution; type: cell-based, Staphylococcus aureus; settings: CLSI broth dilution, MHB, 37°C, 20 h, OD630, at least three repeats; clinical isolate, MRSA
# Excerpt: as §1
# [18] = tested on: S. aureus ATCC 25923; test: MIC, broth dilution; type: cell-based, Staphylococcus aureus; settings: CLSI broth dilution, MHB, 37°C, 20 h, OD630, at least three repeats; standard strain
# Excerpt: as §1
# [19] = tested on: S. epidermidis 9092; test: MIC, broth dilution; type: cell-based; settings: CLSI broth dilution, MHB, 37°C, 20 h, OD630, at least three repeats; clinical isolate, MRSE
# Excerpt: as §1
# [20] = tested on: E. faecalis 901; test: MIC, broth dilution; type: cell-based; settings: CLSI broth dilution, MHB, 37°C, 20 h, OD630, at least three repeats; clinical isolate
# Excerpt: as §1
# [21] = tested on: S. epidermidis 888; test: MIC, broth dilution; type: cell-based; settings: CLSI broth dilution, MHB, 37°C, 20 h, OD630, at least three repeats; clinical isolate
# Excerpt: as §1
# [22] = tested on: S. epidermidis 6943; test: MIC, broth dilution; type: cell-based; settings: CLSI broth dilution, MHB, 37°C, 20 h, OD630, at least three repeats; clinical isolate, MRSE
# Excerpt: as §1
# [23] = tested on: E. faecium 898; test: MIC, broth dilution; type: cell-based, Enterococcus faecium; settings: CLSI broth dilution, MHB, 37°C, 20 h, OD630, at least three repeats; clinical isolate
# Excerpt: as §1
# [24] = tested on: S. aureus ATCC29213; test: MIC, broth dilution; type: cell-based, Staphylococcus aureus; settings: CLSI broth dilution, MHB, 6.25 × 10^5 cfu per ml, 37°C, 20 h, OD630, at least three repeats
# Protocol: as §1, §2
# [25] = tested on: A. baumannii ATCC 19606; test: MIC, broth dilution; type: cell-based, Acinetobacter baumannii; settings: CLSI broth dilution, MHB, 37°C, 20 h, OD630, at least three repeats; standard strain
# Protocol: as §1, §2
# [26] = tested on: P. aeruginosa 9014; test: MIC, broth dilution; type: cell-based, Pseudomonas aeruginosa; settings: CLSI broth dilution, MHB, 37°C, 20 h, OD630, at least three repeats; clinical isolate, CRE, MDR
# Excerpt: as §1
# [27] = tested on: P. aeruginosa 9042; test: MIC, broth dilution; type: cell-based, Pseudomonas aeruginosa; settings: CLSI broth dilution, MHB, 37°C, 20 h, OD630, at least three repeats; clinical isolate
# Excerpt: as §1
# [28] = tested on: A. baumannii; settings: summary of Table 4
# Protocol: The MIC determination was performed using the broth dilution method according to the guidelines of the Clinical and Laboratory Standards Institute (CLSI) ([Cao et al., 2012]; [Mourtada et al., 2019]). Briefly, the bacterial cells were incubated in Mueller-Hinton broth (MHB, Oxoid) at 37°C and 150 rpm, after overnight incubation, the bacteria were transferred to new broth until the exponential phase of growth (OD630 = 0.4). After that, the bacteria were diluted with fresh MHB to 160 μl and prepared in a sterile 96-well polypropylene plate to achieve a final concentration of 6.25 × 10^5 colony forming units (cfu) per ml. Two-fold dilutions of the peptides in 0.9% sodium chloride (40 μl) were added to each well to achieve the final peptide concentrations ranging from 1.25 to 80 μg ml^–1. […] All experiments were repeated at least three times.
Structure (SMILES),MIC [1] [µg/mL],MIC [3] [µg/mL],MIC [5] [µg/mL],MIC [6] [µg/mL],MIC [7] [µg/mL],MIC [8] [µg/mL],MIC [9] [µg/mL],MIC [10] [µg/mL],MIC [11] [µg/mL],MIC [12] [µg/mL],MIC [13] [µg/mL],MIC [14] [µg/mL],MIC [15] [µg/mL],MIC [16] [µg/mL],MIC [17] [µg/mL],MIC [18] [µg/mL],MIC [19] [µg/mL],MIC [20] [µg/mL],MIC [21] [µg/mL],MIC [22] [µg/mL],also measured
CC[C@H](C)[C@H](NC(=O)[C@H](CCCNC(=N)N)NC(=O)[C@H](CCCNC(=N)N)NC(=O)[C@@H](NC(=O)[C@@H](N)Cc1ccccc1)[C@@H](C)CC)C(=O)N[C@@H](C)C(=O)N[C@@H](CCCNC(=N)N)C(=O)N[C@@H](CC(C)C)C(=O)N[C@@H](CC(C)C)C(=O)N[C@@H](CCCNC(=N)N)C(=O)N[C@@H](CCCNC(=N)N)C(=O)N[C@H](C(=O)N[C@@H](Cc1ccccc1)C(N)=O)[C@@H](C)CC [BmKn2-7R] (H-FIRRIARLLRRIF-NH2),10,5,5,5,2.5,2.5,2.5,5,10,10,10,10,5,5,5,5,5,5,2.5,5,"percent hRBC hemolysis ([2]; peptide 100 μg ml^–1): 73.1%; MIC against ESBL E. coli, CRE/MDR P. aeruginosa, CRE/MDR A. baumannii [4]: 2.5–10 μg ml^–1; MIC [23]: 2.5 µg/mL; MIC [24]: 5 µg/mL; MIC [25]: 2.5 µg/mL; MIC [26]: 2.5 µg/mL; MIC [27]: 5 µg/mL"
CC[C@H](C)[C@H](NC(=O)[C@H](CCCNC(=N)N)NC(=O)[C@H](CCCCN)NC(=O)[C@@H](NC(=O)[C@@H](N)Cc1ccccc1)[C@@H](C)CC)C(=O)N[C@@H](C)C(=O)N[C@@H](CCCNC(=N)N)C(=O)N[C@@H](CC(C)C)C(=O)N[C@@H](CC(C)C)C(=O)N[C@@H](CCCNC(=N)N)C(=O)N[C@@H](CCCCN)C(=O)N[C@H](C(=O)N[C@@H](Cc1ccccc1)C(N)=O)[C@@H](C)CC [BmKn2-7] (H-FIKRIARLLRKIF-NH2),10,10,10,10,2.5,5,5,5,10,20,10,5,5,5,5,5,5,5,5,5,percent hRBC hemolysis ([2]; peptide 25 μg ml^–1): 6.9%; percent hRBC hemolysis ([2]; peptide 100 μg ml^–1): 41.0%; MIC [23]: 5 µg/mL; MIC [24]: 5 µg/mL; MIC [25]: 5 µg/mL; MIC [26]: 10 µg/mL; MIC [27]: 20 µg/mL
CC[C@H](C)[C@H](NC(=O)[C@H](C)NC(=O)CNC(=O)[C@@H](NC(=O)[C@@H](N)Cc1ccccc1)[C@@H](C)CC)C(=O)N[C@@H](C)C(=O)N[C@@H](CCCNC(=N)N)C(=O)N[C@@H](CC(C)C)C(=O)N[C@@H](CC(C)C)C(=O)N[C@@H](CO)C(=O)N[C@@H](CCCCN)C(=O)N[C@H](C(=O)N[C@@H](Cc1ccccc1)C(N)=O)[C@@H](C)CC [BmKn2] (H-FIGAIARLLSKIF-NH2),> 80,>80,>80,>80,10,10,10,10,>80,>80,>80,10,5,2.5,2.5,5,5,10,5,5,percent hRBC hemolysis ([2]; peptide 25 μg ml^–1): 91.8%; MIC [23]: 10 µg/mL; MIC [24]: 10 µg/mL; MIC [25]: 10 µg/mL; MIC against A. baumannii [28]: 5–10 μg ml^–1; MIC [26]: >80 µg/mL; MIC [27]: >80 µg/mL
